# Measured values as given in patent US6355799B1, “Substituted benzene compounds, process for their preparation, and herbicidal and defoliant compositions containing them” (ISK Americas Incorporated, priority 1997, dated 2002).
# Experiments:
# Type in all cases: in vivo
# [1] = system: upland rice (Oryza sp., var. Tebonnet, RICE); experiment: Post-emerge test, crop safety; conditions: post-emerge, 14 days after application, rating scale 0-100
# Summary of the method: (§1)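 Sandy loam pots; pre-emerge: sown 1 d pre-spray, surface-watered after, then bottom-watered. Post-emerge: sown 8–21 d before, 2–3 leaf stage, + 0.25% v/v NIS, bottom-watered. Acetone, 187 l/ha track spray, 15–1000 g ai/ha. 0–100 injury score, day 14.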
# [2] = system: field corn (Zea mays L., var. Dekalb 535, CORN); experiment: Post-emerge test, crop safety; conditions: post-emerge, 14 days after application, rating scale 0-100
# Summary of the method: as §1
# [3] = system: barnyardgrass (Echinochloa crus-galli, ECHCG); experiment: Post-emerge test, greenhouse herbicide activity screening; conditions: post-emerge, 14 days after application, rating scale 0-100
# Summary of the method: (§2)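 Compounds in acetone were track-sprayed at 187 l/ha, 15–1000 g ai/ha, onto sandy loam pots. Pre-emerge seeds were sown one day before spraying, with surface watering afterwards. Post-emerge plants were at the 2–3 leaf stage and sprayed with 0.25% v/v non-ionic surfactant. Injury was rated 0–100 at 14 days.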
# [4] = system: johnsongrass (Sorghum halepense, SORHA); experiment: as above; conditions: post-emerge, 14 days after application, rating scale 0-100
# Summary of the method: as §2
# [5] = system: green foxtail (Setaria viridis, SETVI); experiment: as above; conditions: post-emerge, 14 days after application, rating scale 0-100
# Summary of the method: as §2
# [6] = system: large crabgrass (Digitaria sanguinalis, DIGSA); experiment: as above; conditions: post-emerge, 14 days after application, rating scale 0-100
# Summary of the method: as §2
# [7] = system: lambsquarters (Chenopodium album, CHEAL); experiment: as above; conditions: post-emerge, 14 days after application, rating scale 0-100
# Summary of the method: as §2
# [8] = system: sicklepod (Cassia obtusifolia, CASOB); experiment: as above; conditions: post-emerge, 14 days after application, rating scale 0-100
# Summary of the method: as §2
# [9] = system: redroot pigweed (Amaranthus retroflexus, AMARE); experiment: as above; conditions: post-emerge, 14 days after application, rating scale 0-100
# Summary of the method: as §2
# [10] = system: velvetleaf (Abutilon theophrasti, ABUTH); experiment: as above; conditions: post-emerge, 14 days after application, rating scale 0-100
# Summary of the method: as §2
# [11] = system: ivyleaf morningglory (Ipomoea hederacea, IPOHE); experiment: as above; conditions: post-emerge, 14 days after application, rating scale 0-100
# Summary of the method: as §2
# [12] = system: redroot pigweed (Amaranthus retroflexus, AMARE); experiment: Pre-emerge test, greenhouse herbicide activity screening; conditions: rated 14 days after application, 0 = no damage, 100 = complete death
# Summary of the method: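 Rating: 0–100 visual injury, 14 DAA. Application: acetone, 187 l/ha, 15–1000 g ai/ha, flat-fan track sprayer with nozzle 40–45 cm above soil or canopy. Post-emerge runs used 0.25% v/v surfactant on 2–3 leaf plants.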
# [13] = system: barnyardgrass (Echinochloa crus-galli, ECHCG); experiment: as above; conditions: rated 14 days after application, 0 = no damage, 100 = complete death
# Summary of the method: as §1
# [14] = system: johnsongrass (Sorghum halepense, SORHA); experiment: as above; conditions: rated 14 days after application, 0 = no damage, 100 = complete death
# Summary of the method: as §1
# [15] = system: green foxtail (Setaria viridis, SETVI); experiment: as above; conditions: rated 14 days after application, 0 = no damage, 100 = complete death
# Summary of the method: as §1
# [16] = system: large crabgrass (Digitaria sanguinalis, DIGSA); experiment: as above; conditions: rated 14 days after application, 0 = no damage, 100 = complete death
# Summary of the method: as §1
# [17] = system: lambsquarters (Chenopodium album, CHEAL); experiment: as above; conditions: rated 14 days after application, 0 = no damage, 100 = complete death
# Summary of the method: as §1
# [18] = system: sicklepod (Cassia obtusifolia, CASOB); experiment: as above; conditions: rated 14 days after application, 0 = no damage, 100 = complete death
# Summary of the method: as §1
# [19] = system: velvetleaf (Abutilon theophrasti, ABUTH); experiment: as above; conditions: rated 14 days after application, 0 = no damage, 100 = complete death
# Summary of the method: as §1
# [20] = system: ivyleaf morningglory (Ipomoea hederacea, IPOHE); experiment: as above; conditions: rated 14 days after application, 0 = no damage, 100 = complete death
# Summary of the method: as §1
# [21] = system: upland rice (Oryza sp., var. Tebonnet, RICE); experiment: Pre-emerge test, crop safety; conditions: rated 14 days after application, 0 = no damage, 100 = complete death
# Summary of the method: (§3)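 Herbicidal damage is scored 0 (none) to 100 (complete plant death) two weeks after a simulated field spray. Rates span 15–1000 g ai/ha, delivered in acetone at 187 l/ha. For post-emergence treatments, plants have 2–3 leaves and the spray carries 0.25% v/v non-ionic surfactant.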
# [22] = system: field corn (Zea mays L., var. Dekalb 535, CORN); experiment: Pre-emerge test, crop safety; conditions: rated 14 days after application, 0 = no damage, 100 = complete death
# Summary of the method: as §3
smiles,measurement,setting,value
COc1c(Cl)cc(F)c(-n2c(=O)cc(C(F)(F)F)n(C)c2=O)c1NC(=O)COCc1ccccc1 [2-89],phytotoxicity rating RICE,[1]; 63 g ai/ha,60
same,phytotoxicity rating RICE,[1]; 250 g ai/ha,70
same,phytotoxicity rating CORN,[2]; 63 g ai/ha,0
same,phytotoxicity rating CORN,[2]; 250 g ai/ha,0
same,phytotoxicity rating ECHCG,[3]; 63 g ai/ha,0
same,phytotoxicity rating ECHCG,[3]; 250 g ai/ha,10
same,phytotoxicity rating SORHA,[4]; 63 g ai/ha,0
same,phytotoxicity rating SORHA,[4]; 250 g ai/ha,10
same,phytotoxicity rating SETVI,[5]; 63 g ai/ha,20
same,phytotoxicity rating SETVI,[5]; 250 g ai/ha,20
same,phytotoxicity rating DIGSA,[6]; 63 g ai/ha,0
same,phytotoxicity rating DIGSA,[6]; 250 g ai/ha,0
same,phytotoxicity rating CHEAL,[7]; 63 g ai/ha,60
same,phytotoxicity rating CHEAL,[7]; 250 g ai/ha,90
same,phytotoxicity rating CASOB,[8]; 63 g ai/ha,50
same,phytotoxicity rating CASOB,[8]; 250 g ai/ha,60
same,phytotoxicity rating AMARE,[9]; 63 g ai/ha,70
same,phytotoxicity rating AMARE,[9]; 250 g ai/ha,100
same,phytotoxicity rating ABUTH,[10]; 63 g ai/ha,100
same,phytotoxicity rating ABUTH,[10]; 250 g ai/ha,100
same,phytotoxicity rating IPOHE,[11]; 63 g ai/ha,90
same,phytotoxicity rating IPOHE,[11]; 250 g ai/ha,100
same,"Pre-emerge Herbicidal Activity, phytotoxicity rating (0-100), AMARE",[12]; 63 g ai/ha,100
same,"Pre-emerge Herbicidal Activity, phytotoxicity rating (0-100), AMARE",[12]; 250 g ai/ha,100
same,"Pre-emerge Herbicidal Activity, phytotoxicity rating (0-100), ECHCG",[13]; 63 g ai/ha,50
same,"Pre-emerge Herbicidal Activity, phytotoxicity rating (0-100), ECHCG",[13]; 250 g ai/ha,90
same,"Pre-emerge Herbicidal Activity, phytotoxicity rating (0-100), SORHA",[14]; 63 g ai/ha,60
same,"Pre-emerge Herbicidal Activity, phytotoxicity rating (0-100), SORHA",[14]; 250 g ai/ha,90
same,"Pre-emerge Herbicidal Activity, phytotoxicity rating (0-100), SETVI",[15]; 63 g ai/ha,100
same,"Pre-emerge Herbicidal Activity, phytotoxicity rating (0-100), SETVI",[15]; 250 g ai/ha,100
same,"Pre-emerge Herbicidal Activity, phytotoxicity rating (0-100), DIGSA",[16]; 63 g ai/ha,99
same,"Pre-emerge Herbicidal Activity, phytotoxicity rating (0-100), DIGSA",[16]; 250 g ai/ha,100
same,"Pre-emerge Herbicidal Activity, phytotoxicity rating (0-100), CHEAL",[17]; 63 g ai/ha,100
same,"Pre-emerge Herbicidal Activity, phytotoxicity rating (0-100), CHEAL",[17]; 250 g ai/ha,100
same,"Pre-emerge Herbicidal Activity, phytotoxicity rating (0-100), CASOB",[18]; 63 g ai/ha,95
same,"Pre-emerge Herbicidal Activity, phytotoxicity rating (0-100), CASOB",[18]; 250 g ai/ha,100
same,"Pre-emerge Herbicidal Activity, phytotoxicity rating (0-100), ABUTH",[19]; 63 g ai/ha,100
same,"Pre-emerge Herbicidal Activity, phytotoxicity rating (0-100), ABUTH",[19]; 250 g ai/ha,100
same,"Pre-emerge Herbicidal Activity, phytotoxicity rating (0-100), IPOHE",[20]; 63 g ai/ha,95
same,"Pre-emerge Herbicidal Activity, phytotoxicity rating (0-100), IPOHE",[20]; 250 g ai/ha,100
same,"Pre-emerge phytotoxicity rating (0-100), crop damage, RICE",[21]; 63 g ai/ha,40
same,"Pre-emerge phytotoxicity rating (0-100), crop damage, RICE",[21]; 250 g ai/ha,90
same,"Pre-emerge phytotoxicity rating (0-100), crop damage, CORN",[22]; 63 g ai/ha,10
same,"Pre-emerge phytotoxicity rating (0-100), crop damage, CORN",[22]; 250 g ai/ha,30
